From patent US8507472B2 (priority 2010, dated 2013) come the findings set out here.

Structures are written as SMILES. Like-named read-outs stand apart in the source and are kept apart here.

In one data set the test system is Sphaerotheca fuliginea. Nature of the data set: Sphaerotheca test (cucumber)/protective. The format is in vivo. Put shortly:
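Protective test: young cucumber plants sprayed with compound (DMF/alkylaryl polyglycol ether concentrate diluted in water) at the stated rate, inoculated with S. fuliginea spores 1 day later, then kept in greenhouse at 23 °C, 70% RH. Efficacy scored 7 days post-inoculation; 0% equals untreated control, 100% means no infection.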

The subject of data set [1] is Fusarium graminearum. It is filed as in vivo.
The subject of a further data set is Phytophthora infestans. It is filed as in vivo.
In a further data set the test system is Botrytis cinerea. Nature of the data set: Botrytis test (bean)/protective. It is filed as in vivo. The following applies: 100 ppm active compound, protective, evaluation 2 days after inoculation. Put shortly:
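Young bean plants sprayed at the stated rate with compound in acetone/dimethylacetamide plus alkylaryl polyglycol ether emulsifier, diluted in water. Once dry, each leaf got 2 agar pieces colonized by Botrytis cinerea; kept dark at about 20° C., 100% humidity. Infected area scored after 2 days; 0% = control, 100% = no infection.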

The subject of the next data set is Puccinia triticina. Nature of the data set: Puccinia triticina test (wheat)/protective. It is filed as in vivo. As for the experimental part: Solvent: 49 parts by weight of […]
(§1) Emulsifier: 1 part by weight of alkylaryl polyglycol ether
(§2) To produce a suitable preparation of active compound, 1 part by weight of active compound is mixed with the stated amounts of solvent and emulsifier, and the concentrate is diluted with water to the desired concentration.
(§3) To test for protective activity, young plants are sprayed with the active compound preparation at the stated application rate.
After the spray coating has dried on, the plants are sprayed with spores of a spore suspension of Puccinia triticina. The plants remain in an incubation cabin at 20° C. and 100% relative atmospheric humidity for 48 hours.
The plants are placed in greenhouse at a temperature of about 20° C. and a relative atmospheric humidity of about 80%.
Evaluation is carried out 8 days after the inoculation. 0% means an efficacy which corresponds to that of the control, whereas an efficacy of 100% means that no infection is observed.

The test system of another data set is Venturia inaequalis. Nature of the data set: Venturia test (apple)/protective. The format is in vivo. The following applies: 100 ppm active compound, protective, evaluation 10 days after inoculation. Put shortly:
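Young apple plants sprayed protectively with compound (in acetone/dimethylacetamide with alkylaryl polyglycol ether, diluted in water) at the stated rate, then inoculated with V. inaequalis conidia once dry. Held 1 day at ~20° C, 100% humidity, then greenhouse ~21° C, ~90% humidity; efficacy scored 10 days post-inoculation (0% = control, 100% = no infection).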

The next data set relates to Pyrenophora teres. Nature of the data set: Pyrenophora teres test (barley)/protective. It is filed as in vivo. Put shortly:
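Protective test: young barley plants sprayed at the stated rate with compound in DMF/alkylaryl polyglycol ether diluted with water, inoculated with P. teres spores 1 day later, kept 48 h at 100% rel. humidity and 22° C., then greenhouse at 80% and 20° C. Efficacy scored 7-9 days post-inoculation (0% = control, 100% = no infection).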

For another data set, the system named is Uromyces appendiculatus. Nature of the data set: Uromyces test (bean)/protective. The format is in vivo. Put shortly: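 Young bean plants sprayed with compound formulated in acetone/dimethylacetamide with emulsifier, inoculated with Uromyces appendiculatus spores after drying, held 1 day at ~20 °C and 100% humidity, then greenhouse ~21 °C, ~90% humidity. Efficacy scored 10 days post-inoculation, 0% = untreated control, 100% = no infection.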

For the next data set, the system named is Alternaria solani. Nature of the data set: Alternaria test (tomato)/protective. The format is in vivo. Put shortly: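 Young tomato plants were sprayed with compound (DMF/emulsifier formulation diluted in water) and inoculated with A. solani spores 1 day later. Plants were kept 24 h at 100% RH and 22 °C, then at 96% RH and 20 °C. Efficacy was scored 7 days post-inoculation, where 0% equals untreated control and 100% means no infection.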

Another data set concerns Septoria tritici. Nature of the data set: Septoria tritici test (wheat)/protective. It is filed as in vivo. As for the experimental part: (§4) Solvent: 49 parts by weight of N,N-dimethylacetamide
as §1
To produce a suitable preparation of active compound, 1 part by weight of active compound is mixed with the stated amount of solvent and emulsifier, and the concentrate is diluted with water to the desired concentration.
To test for protective activity, young plants are sprayed with the active compound preparation at the stated application rate. After the spray coating has dried on, the plants are sprayed with a spore suspension of Septoria tritici. The plants remain in an incubation cabin at 20° C. and 100% relative atmospheric humidity for 48 hours. The plants are then placed under a translucent hood at 15° C. and 100% relative atmospheric humidity for a further 60 hours.
The plants are placed in a greenhouse at a temperature of about 15° C. and a relative atmospheric humidity of 80%.
Evaluation is carried out 21 days after the inoculation. 0% means an efficacy which corresponds to that of the control, whereas an efficacy of 100% means that no infection is observed.

For data set [2], the system named is Fusarium nivale (var. majus). Nature of the data set: Fusarium nivale (var. majus) test (wheat)/protective. It is filed as in vivo. The following applies: 1000 ppm active compound, protective, evaluation 5 days after inoculation. The method, then: as §4, §1, §2, §3
After the spray coating has dried on, the plants are sprayed with spores of a spore suspension of Fusarium nivale (var. majus).
The plants are placed in a greenhouse chamber under a translucent incubation hood at 10° C. and 100% relative atmospheric humidity.
Evaluation is carried out 5 days after the inoculation. 0% means an efficacy which corresponds to that of the control, whereas an efficacy of 100% means that no infection is observed.

Data set [3] relates to Fusarium graminearum. Nature of the data set: microbe, parasite or virus in culture. It is filed as cell-based.
A further data set concerns Leptosphaeria nodorum. The experiment in a line: Leptosphaeria nodorum test (wheat)/protective. The format is in vivo. Put shortly:
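Young wheat plants were sprayed protectively, then inoculated 1 day later with L. nodorum spores and held 48 h at 100% humidity and 22° C. They were then kept in a greenhouse at 90% humidity and 22° C. Efficacy was scored 7-9 days post-inoculation, where 0% equals control and 100% means no infection.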

The test system of the next data set is DON/AcDON production. Nature of the data set: microbe, parasite or virus in culture. It is filed as cell-based, Fusarium graminearum. The following applies: 7 days at 28° C.
The nature of data set [4]: log P determination by HPLC retention times (alkan-2-one calibration).
[5] abbreviates: 500 ppm active compound, tomato, protective, evaluation 7 days after inoculation.

In the case of `CCC(=O)Nc1cc(-c2c(-c3ccccc3)nn3c2CCCC3)ccn1` [Example 8], the efficacy in % with Sphaerotheca fuliginea (in vivo) stood at 99%; in the data set with Fusarium graminearum [1] (in vivo), 88%; with Phytophthora infestans (in vivo), 95%; in the data set with Botrytis cinerea, 99%; in the data set with Puccinia triticina (in vivo) it was 100%; in the data set on Venturia inaequalis, 96%. For the same compound, the efficacy in % in the data set with Pyrenophora teres (in vivo) is reported as 100%; in the data set on Uromyces appendiculatus (in vivo), 100%; in the data set on Alternaria solani (in vivo), 100%; in the data set on Septoria tritici (in vivo), 100%; in data set [2] it was 100%; in the data set with Leptosphaeria nodorum (in vivo), 95%. The “% inhibition of the fungal growth of Fusarium graminearum at 50 μM” value (“% inhibition of the fungal growth … at 50 μM” below) in the data set on Fusarium graminearum [3] came to 100%. Also, the “% inhibition of DON/AcDON at 50 μM” value with DON/AcDON production is on record as 99%.

Turning to `O=C(Nc1cc(-c2c(-c3ccsc3)nn3c2CCCC3)ccn1)C1CC1` [Example 65], the efficacy in % in the data set on Sphaerotheca fuliginea (in vivo) stood at 100%; in the data set on Fusarium graminearum [1] (in vivo) it was 83%; in the data set on Phytophthora infestans (in vivo) it was 90%; in the data set with Botrytis cinerea, 97%; with Puccinia triticina (in vivo), 86%; with Venturia inaequalis, 96%. For the same compound, the efficacy in % in the data set with Pyrenophora teres (in vivo) is recorded as 95%; with Uromyces appendiculatus (in vivo) it was 95%; in the data set on Alternaria solani (in vivo) it was 100%; in the data set with Septoria tritici (in vivo) it was 90%; in data set [2], 100%; in the data set with Leptosphaeria nodorum (in vivo), 94%. In the data set with Fusarium graminearum [3], the “% inhibition of the fungal growth … at 50 μM” value amounted to 100%. The “% inhibition of DON/AcDON at 50 μM” value in the data set on DON/AcDON production is given as 100%.

Consider `C[C@H](O)C(=O)Nc1cc(-c2c(-c3ccc(F)cc3)nn3c2CCCC3)ccn1` [Example 24], for which the efficacy in % with Sphaerotheca fuliginea (in vivo) is recorded as 94%; with Fusarium graminearum [1] (in vivo), 100%; in the data set with Phytophthora infestans (in vivo), 90%; with Botrytis cinerea, 76%; in the data set on Puccinia triticina (in vivo) it was 100%; in the data set with Venturia inaequalis, 83%. For the same compound, the efficacy in % with Pyrenophora teres (in vivo) turned out to be 95%; with Uromyces appendiculatus (in vivo), 91%; in the data set on Alternaria solani (in vivo), 95%; in the data set on Septoria tritici (in vivo) it was 100%; in data set [2], 100%; with Leptosphaeria nodorum (in vivo), 90%. Also, the “% inhibition of the fungal growth … at 50 μM” value in the data set with Fusarium graminearum [3] amounted to 74%. Further, the “% inhibition of DON/AcDON at 50 μM” value in the data set with DON/AcDON production is given as 99%.

In the case of `CC(C)C(=O)Nc1cc(-c2c(-c3ccsc3)nn3c2CCCC3)ccn1` [Example 63], the efficacy in % in the data set with Sphaerotheca fuliginea (in vivo) came to 93%; in the data set with Fusarium graminearum [1] (in vivo), 83%; in the data set on Phytophthora infestans (in vivo), 95%; in the data set on Botrytis cinerea, 94%; in the data set on Puccinia triticina (in vivo), 86%; in the data set on Venturia inaequalis, 99%. Moreover, the efficacy in % with Pyrenophora teres (in vivo) amounted to 95%; with Uromyces appendiculatus (in vivo), 75%; in the data set with Alternaria solani (in vivo), 100%; with Septoria tritici (in vivo) it was 100%; in [2], 83%; in the data set with Leptosphaeria nodorum (in vivo) it was 94%. For the same compound, the “% inhibition of the fungal growth … at 50 μM” value with Fusarium graminearum [3] amounted to 100%. The “% inhibition of DON/AcDON at 50 μM” value in the data set on DON/AcDON production was 100%.

One may read the chromatographic logP as lipophilicity estimated from chromatographic retention. A low value points to lower lipophilicity. Broadly, the inhibition is how much of the control response was suppressed. As to `COC(=O)Nc1cc(-c2c(-c3ccc(F)cc3)nn3c2CCCC3)ccn1` [Example 26, Methyl{4-[2-(4-fluorophenyl)-4,5,6,7-tetrahydropyrazolo[1,5-a]pyridin-3-yl]-pyridin-2-yl}carbamate], the efficacy in % was 98% with Sphaerotheca fuliginea (500 ppm active compound, cucumber, protective, evaluation 7 days after inoculation); 88% in the data set on Fusarium graminearum [1] (1000 ppm active compound, barley, protective, evaluation 5 days after inoculation); 95% in the data set with Phytophthora infestans (setting [5]); 93% in the data set on Botrytis cinerea; 100% with Puccinia triticina (1000 ppm active compound, wheat, protective, evaluation 8 days after inoculation); 93% in the data set on Venturia inaequalis. Further, the efficacy in % is 95% in the data set on Pyrenophora teres (500 ppm active compound, barley, protective, evaluation 7-9 days after inoculation); 94% in the data set with Uromyces appendiculatus (100 ppm active compound, bean, protective, evaluation 10 days after inoculation); 100% in the data set on Alternaria solani (setting [5]); 86% in the data set on Septoria tritici (1000 ppm active compound, wheat, protective, evaluation 21 days after inoculation); 86% in data set [2]; 80% in the data set with Leptosphaeria nodorum (500 ppm active compound, wheat, protective, evaluation 7-9 days after inoculation). Further, the chromatographic logP in [4] (log P(HCOOH), HCOOH, preparation examples in the text) is 2.11; in [4] (log P, values marked [a] in Table 1), 2.11; in data set [4] (log P, values marked [b] in Table 1), 2.56. Further, the inhibition at 50 µM is 57% with Fusarium graminearum [3] (Fusarium graminearum, 72 h, read-out: % inhibition of the fungal growth of Fusarium graminearum at 50 μM) and 98% in the data set on DON/AcDON production (Fusarium graminearum, 168 h).

`COCC(=O)Nc1cc(-c2c(-c3ccc(F)cc3)nn3c2CCCC3)ccn1` [Example 22]: the efficacy in % with Sphaerotheca fuliginea (in vivo) is 90%; in the data set with Fusarium graminearum [1] (in vivo), 100%; in the data set on Phytophthora infestans (in vivo), 90%; in the data set with Botrytis cinerea, 89%; in the data set with Puccinia triticina (in vivo) it was 75%; with Venturia inaequalis it was 76%. The efficacy in % in the data set on Pyrenophora teres (in vivo) amounted to 95%; in the data set on Uromyces appendiculatus (in vivo), 94%; with Alternaria solani (in vivo), 95%; in the data set on Septoria tritici (in vivo), 86%; in data set [2], 86%; with Leptosphaeria nodorum (in vivo) it was 80%. For the same compound, the “% inhibition of the fungal growth … at 50 μM” value in the data set with Fusarium graminearum [3] is recorded as 97%. For the same compound, in the data set on DON/AcDON production, the “% inhibition of DON/AcDON at 50 μM” value was found to be 100%.

Take `CC(=O)Nc1cc(-c2c(-c3ccc(F)cc3)nn3c2CCCC3)ccn1` [Example 15]: the efficacy in % in the data set on Sphaerotheca fuliginea (in vivo) was 98%; in the data set with Fusarium graminearum [1] (in vivo) it was 100%; with Phytophthora infestans (in vivo), 95%; with Botrytis cinerea, 82%; in the data set on Puccinia triticina (in vivo) it was 94%; with Venturia inaequalis it was 94%. Besides, the efficacy in % in the data set on Pyrenophora teres (in vivo) amounted to 100%; with Uromyces appendiculatus (in vivo), 94%; in the data set on Alternaria solani (in vivo) it was 100%; with Septoria tritici (in vivo), 100%; in data set [2], 100%; with Leptosphaeria nodorum (in vivo), 95%. Moreover, the “% inhibition of the fungal growth … at 50 μM” value in the data set with Fusarium graminearum [3] turned out to be 88%. In the data set on DON/AcDON production, the “% inhibition of DON/AcDON at 50 μM” value came out at 99%.
